# Target: T1, human 5-HT6 receptor (Homo sapiens, UniProt P50406)
# T1 construct: host or cells: CHO-K1 cells, stably transfected; membranes prepared in house
# Assay: Human 5-HT6 Receptor Binding Assay ([3H]LSD, scintillation beads)
# Conditions: actual data; membranes of CHO-K1 cells with recombinant human 5-HT6 receptor, 4 nM [3H]LSD; read-out: Human 5-HT6 Ki
# Method: Human 5-HT6 Receptor Binding Assay
# Membranes were prepared from CHO-K1 cells stably transfected with the human 5-HT6 receptor (Euroscreen; ES-316-C). The cells were grown in Gibco Advanced DMEM-F12 (Cat#12634010) containing 2% dialyzed FBS (Hyclone Cat#SH30079.03). The cells were harvested in phosphate buffered saline (PBS) containing 0.1 mM EDTA and pelleted by centrifugation (1000×g), the supernatant was discarded and the pellets were stored at −80° C. prior to membrane preparation. Membranes were prepared as previously described (J Bio Chem. 1992, 267 (14) 9844-51). Briefly, frozen cell pellet was resuspended in a lysis buffer containing 5 mM Tris-HCl (pH 7.5), 5 mM EDTA and 1 complete EDTA-free protease inhibitor tablet (Roche Applied Science, Indianapolis, Ind.) per 50 mL buffer, and homogenized with a tissue homogenizer. The cell lysate was then centrifuged at 40,000×g for 30 min at 4° C. to collect the membranes. The membrane pellets were washed in membrane buffer (50 mM Tris-HCl (pH 7.5), 0.6 mM EDTA, 5 mM MgCl2, 1 complete EDTA-free protease inhibitor tablet per 50 mL buffer) using a tissue homogenizer. The membranes were centrifuged at 40,000×g for 30 min at 4° C. and the pellets were resuspended in membrane buffer containing 250 mM sucrose, and protein concentration was determined using the Coomassie Plus kit (Pierce Biotechnology, Rockford, Ill.).
# Membranes prepared from cells expressing recombinant human 5-HT6 receptor (h5-HT6) were resuspended in assay buffer containing 50 mM Tris HCl, (pH7.4), 4 mM CaCl2, 10 μg/mL saponin, and 0.1% (w/v) ascorbic acid. Membranes were preincubated using 1.75 μg membrane protein and 0.25 mg FlashBlue scintillation beads (PerkinElmer catalogue #FB001) per well at 4° C. for 30 min. […] Test compounds or assay controls for total and non-specific binding were diluted in DMSO as 100× solutions and serially diluted by half log concentrations on a Perkin Elmer JANUS Automated Workstation. Serotonin (10 μM final concentration) was used to determine non-specific binding in the assay. Plates were read using the Microbeta Trilux 1450 LSC and luminescence counter. Data were analyzed by nonlinear […] using the dose-response equation (variable slope) to calculate IC50 in XLfit4 (ID Business Solutions Inc.): y=(Bottom+((Top−Bottom)/(1+((IC50/x)^Hill slope))))
# Ki value was then calculated according to the Cheng-Prusoff method using the equation below (Cheng and Prusoff, 1973): Ki, app=IC50/(1+([radioligand]/Kd))
# T1 sequence (P50406 whole entry): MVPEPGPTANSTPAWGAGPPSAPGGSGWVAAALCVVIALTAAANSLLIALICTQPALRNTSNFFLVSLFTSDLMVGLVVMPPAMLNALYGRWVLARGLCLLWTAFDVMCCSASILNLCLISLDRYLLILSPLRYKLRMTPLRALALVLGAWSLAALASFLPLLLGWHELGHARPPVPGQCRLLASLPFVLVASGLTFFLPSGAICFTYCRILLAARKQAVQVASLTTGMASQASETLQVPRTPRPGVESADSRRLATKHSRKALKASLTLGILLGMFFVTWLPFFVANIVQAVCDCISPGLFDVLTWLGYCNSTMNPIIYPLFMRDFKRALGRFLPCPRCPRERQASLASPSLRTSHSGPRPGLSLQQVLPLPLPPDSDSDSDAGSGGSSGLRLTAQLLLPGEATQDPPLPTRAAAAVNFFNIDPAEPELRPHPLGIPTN
row,Ki,SMILES
1,504 nM,"CC(C)N1CCC2c3ccc(S(=O)(=O)c4ccccc4)cc3OCC21 (single isomer, unassigned) [Example 57, 7-(phenylsulfonyl)-3-(propan-2-yl)-1,2,3,3a,4,9b-hexahydrochromeno[3,4-b]pyrrole]"

# Same assay, conditions: membranes of CHO-K1 cells with recombinant human 5-HT6 receptor, 4 nM [3H]LSD, Cheng-Prusoff; read-out: Human 5-HT6 Ki app
row,SMILES,Ki
1,"O=S(=O)(c1ccccc1)c1ccc2c(c1)OCC1NCCC21 (single isomer, unassigned) [Example 55, 7-(phenylsulfonyl)-1,2,3,3a,4,9b-hexahydrochromeno[3,4-b]pyrrole]",< 500 nM
2,"CC(C)N1CCC2c3ccc(S(=O)(=O)c4ccccc4)cc3OCC21 (single isomer, unassigned) [Example 57, 7-(phenylsulfonyl)-3-(propan-2-yl)-1,2,3,3a,4,9b-hexahydrochromeno[3,4-b]pyrrole]",500 to 1000 nM
3,"CC(C)N1CCC2c3ccc(S(=O)(=O)c4ccccc4)cc3OCC21 (single isomer, unassigned) [Example 58, 7-(phenylsulfonyl)-3-(propan-2-yl)-1,2,3,3a,4,9b-hexahydrochromeno[3,4-b]pyrrole]",> 1000 nM
4,"O=S(=O)(c1ccccc1)c1ccc2c(c1)OCC1C2CCN1CC(F)F (single isomer, unassigned) [Example 67, 3-(2,2-difluoroethyl)-7-(phenylsulfonyl)-1,2,3,3a,4,9b-hexahydrochromeno[3,4-b]pyrrole]",< 500 nM
5,"O=S(=O)(c1ccccc1)c1ccc2c(c1)OCC1C2CCN1CC1CCCC1 (single isomer, unassigned) [Example 70, 3-(cyclopentylmethyl)-7-(phenylsulfonyl)-1,2,3,3a,4,9b-hexahydrochromeno[3,4-b]pyrrole]",< 500 nM
6,"O=S(=O)(c1ccccc1)c1ccc2c(c1)OCC1C2CCN1CC1CC1 (single isomer, unassigned) [Example 72, 3-(cyclopropylmethyl)-7-(phenylsulfonyl)-1,2,3,3a,4,9b-hexahydrochromeno[3,4-b]pyrrole]",> 1000 nM
7,"O=S(=O)(c1cncc(Br)c1)c1ccc2c(c1)OCC1C2CCN1C1CCC1 (single isomer, unassigned) [Example 73, 7-[(5-bromopyridin-3-yl)sulfonyl]-3-cyclobutyl-1,2,3,3a,4,9b-hexahydrochromeno[3,4-b]pyrrole]",500 to 1000 nM
8,"COc1cncc(S(=O)(=O)c2ccc3c(c2)OCC2C3CCN2C2CCC2)c1 (single isomer, unassigned) [Example 74, 3-cyclobutyl-7-[(5-methoxypyridin-3-yl)sulfonyl]-1,2,3,3a,4,9b-hexahydrochromeno[3,4-b]pyrrole]",> 1000 nM
9,"O=S(=O)(c1cncc(F)c1)c1ccc2c(c1)OCC1C2CCN1C1CCC1 (single isomer, unassigned) [Example 75, 3-cyclobutyl-7-[(5-fluoropyridin-3-yl)sulfonyl]-1,2,3,3a,4,9b-hexahydrochromeno[3,4-b]pyrrole]",> 1000 nM
10,"O=S(=O)(c1cncc(Cl)c1)c1ccc2c(c1)OCC1C2CCN1C1CCC1 (single isomer, unassigned) [Example 76, 7-[(5-chloropyridin-3-yl)sulfonyl]-3-cyclobutyl-1,2,3,3a,4,9b-hexahydrochromeno[3,4-b]pyrrole]",< 500 nM
11,"O=S(=O)(c1ccccc1)c1ccc2c(c1)OCC1C2CCN1CC(F)F (single isomer, unassigned) [Example 77, 3-(2,2-difluoroethyl)-7-(phenylsulfonyl)-1,2,3,3a,4,9b-hexahydrochromeno[3,4-b]pyrrole]",> 1000 nM
12,"O=S(=O)(c1cncc(Br)c1)c1ccc2c(c1)OCC1C2CCN1C1CCC1 (single isomer, unassigned) [Example 78, 7-[(5-bromopyridin-3-yl)sulfonyl]-3-cyclobutyl-1,2,3,3a,4,9b-hexahydrochromeno[3,4-b]pyrrole]",> 1000 nM
13,"COc1cncc(S(=O)(=O)c2ccc3c(c2)OCC2C3CCN2C2CCC2)c1 (single isomer, unassigned) [Example 79, 3-cyclobutyl-7-[(5-methoxypyridin-3-yl)sulfonyl]-1,2,3,3a,4,9b-hexahydrochromeno[3,4-b]pyrrole]",> 1000 nM
14,"O=S(=O)(c1cncc(F)c1)c1ccc2c(c1)OCC1C2CCN1C1CCC1 (single isomer, unassigned) [Example 80, 3-cyclobutyl-7-[(5-fluoropyridin-3-yl)sulfonyl]-1,2,3,3a,4,9b-hexahydrochromeno[3,4-b]pyrrole]",> 1000 nM
15,"O=S(=O)(c1cncc(Cl)c1)c1ccc2c(c1)OCC1C2CCN1C1CCC1 (single isomer, unassigned) [Example 81, 7-[(5-chloropyridin-3-yl)sulfonyl]-3-cyclobutyl-1,2,3,3a,4,9b-hexahydrochromeno[3,4-b]pyrrole]",> 1000 nM
16,"Cc1cccc(Sc2ccc3c(c2)OCC2C3CCN2C2CCC2)n1 (single isomer, unassigned) [Example 82, 3-cyclobutyl-7-[(6-methylpyridin-2-yl)sulfanyl]-1,2,3,3a,4,9b-hexahydrochromeno[3,4-b]pyrrole]",> 1000 nM
17,"Cc1cccc([S+]([O-])c2ccc3c(c2)OCC2C3CCN2C2CCC2)n1 (single isomer, unassigned) [Example 83, 3-cyclobutyl-7-[(6-methylpyridin-2-yl)sulfinyl]-1,2,3,3a,4,9b-hexahydrochromeno[3,4-b]pyrrole]",> 1000 nM
18,"Cc1cccc(S(=O)(=O)c2ccc3c(c2)OCC2C3CCN2C2CCC2)n1 (single isomer, unassigned) [Example 84, 3-cyclobutyl-7-[(6-methylpyridin-2-yl)sulfonyl]-1,2,3,3a,4,9b-hexahydrochromeno[3,4-b]pyrrole]",> 1000 nM

# Second part, the compound after the results:
row,Ki,SMILES
1,500 to 1000 nM,"O=S(=O)(c1ccccc1)c1ccc2c(c1)OCC1C2CCN1C1CCC1 (single isomer, unassigned) [Example 59, 3-cyclobutyl-7-(phenylsulfonyl)-1,2,3,3a,4,9b-hexahydrochromeno[3,4-b]pyrrole]"
2,> 1000 nM,"O=S(=O)(c1ccccc1)c1ccc2c(c1)OCC1C2CCN1C1CCC1 (single isomer, unassigned) [Example 60, 3-cyclobutyl-7-(phenylsulfonyl)-1,2,3,3a,4,9b-hexahydrochromeno[3,4-b]pyrrole]"
3,< 500 nM,"O=S(=O)(c1ccccc1)c1ccc2c(c1)OCC1C2CCN1C1CCCC1 (single isomer, unassigned) [Example 61, 3-cyclopentyl-7-(phenylsulfonyl)-1,2,3,3a,4,9b-hexahydrochromeno[3,4-b]pyrrole]"
4,> 1000 nM,"O=S(=O)(c1ccccc1)c1ccc2c(c1)OCC1C2CCN1C1CCCC1 (single isomer, unassigned) [Example 62, 3-cyclopentyl-7-(phenylsulfonyl)-1,2,3,3a,4,9b-hexahydrochromeno[3,4-b]pyrrole]"
5,< 500 nM,"O=S(=O)(c1ccccc1)c1ccc2c(c1)OCC1C2CCN1C1CCCCC1 (single isomer, unassigned) [Example 63, 3-cyclohexyl-7-(phenylsulfonyl)-1,2,3,3a,4,9b-hexahydrochromeno[3,4-b]pyrrole]"
6,> 1000 nM,"O=S(=O)(c1ccccc1)c1ccc2c(c1)OCC1C2CCN1C1CCCCC1 (single isomer, unassigned) [Example 64, 3-cyclohexyl-7-(phenylsulfonyl)-1,2,3,3a,4,9b-hexahydrochromeno[3,4-b]pyrrole]"
7,500 to 1000 nM,"O=S(=O)(c1ccccc1)c1ccc2c(c1)OCC1C2CCN1C1CCOC1 (single isomer, unassigned) [Example 65, 7-(phenylsulfonyl)-3-(tetrahydrofuran-3-yl)-1,2,3,3a,4,9b-hexahydrochromeno[3,4-b]pyrrole]"
8,> 1000 nM,"O=S(=O)(c1ccccc1)c1ccc2c(c1)OCC1C2CCN1C1CCOC1 (single isomer, unassigned) [Example 66, 7-(phenylsulfonyl)-3-(tetrahydrofuran-3-yl)-1,2,3,3a,4,9b-hexahydrochromeno[3,4-b]pyrrole]"
9,< 500 nM,"O=S(=O)(c1ccccc1)c1ccc2c(c1)OCC1C2CCN1C1CCOCC1 (single isomer, unassigned) [Example 68, 7-(phenylsulfonyl)-3-(tetrahydro-2H-pyran-4-yl)-1,2,3,3a,4,9b-hexahydrochromeno[3,4-b]pyrrole]"
10,> 1000 nM,"O=S(=O)(c1ccccc1)c1ccc2c(c1)OCC1C2CCN1C1CCOCC1 (single isomer, unassigned) [Example 69, 7-(phenylsulfonyl)-3-(tetrahydro-2H-pyran-4-yl)-1,2,3,3a,4,9b-hexahydrochromeno[3,4-b]pyrrole]"
11,> 1000 nM,"O=S(=O)(c1ccccc1)c1ccc2c(c1)OCC1C2CCN1CC1CCCC1 (single isomer, unassigned) [Example 71, 3-(cyclopentylmethyl)-7-(phenylsulfonyl)-1,2,3,3a,4,9b-hexahydrochromeno[3,4-b]pyrrole]"

# — US9115147B2, “Tricyclic derivatives and their pharmaceutical use and compositions” (Cephalon, Inc., priority 2009, dated 2015)
